Measured values published in US6362369B1, “Phthalic acid diamide derivatives fluorine-containing aniline compounds as starting material, agricultural and horticultural insecticides, and a method for application of the insecticides” (Nihon Nohyaku Co., Ltd., priority 1997, dated 2002).

Columns and labels:
Assay type in all cases: in vivo
[1] = system: diamondback moth (Plutella xylostella); assay: Insecticidal effect on diamondback moth (Test Example 1); details: diamondback moth; judged by the criterion of Test Example 1
Summary of the method: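 Eggs laid by adult moths on Chinese cabbage seedlings, which were immersed in test solution, air-dried and kept at 25 °C. Hatched insects counted 6 days after immersion and mortality calculated, with effect graded by criterion; triplicate groups of 10 insects.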

[2] = system: common cutworm (Spodoptera Litura); assay: Insecticidal effect on common cutworm (Test Example 2); details: 500 ppm, cabbage leaf dip, second-instar larvae of common cutworm, 8 days after inoculation, 25° C.
Summary of the method: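 2nd-instar larvae on air-dried treatment, closed dish, 25° C; dead/alive counted at day 8. Mortality calculated, graded by criterion. 3 × 10 insects.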

[3] = system: rice leafroller (Cnaphalocrocis medinalis); assay: Insecticidal effect on rice leafroller (Test Example 3); details: 500 ppm, rice lamina dip, third-instar larvae of rice leafroller, 4 days after inoculation, 25° C., humidity 70%
Summary of the method: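 Groups of 10 third-instar larvae, in triplicate, are placed on air-dried lamina resting on wet filter paper. Incubation runs four days at 25° C with 70% humidity before survivors and dead are tallied.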

SMILES | Insecticidal effect (Test Example 1), judged from mortality [1] | Insecticidal effect (Test Example 2), judged from mortality [2] | Insecticidal effect (Test Example 3), judged from mortality [3]
CCN(CC)C(=O)c1c(Cl)cccc1C(=O)Nc1ccc(OC(F)(F)C(F)F)cc1C [compound 1539] | A (100) | A (100) | A (100)
CCN(CC)C(=O)c1c(Cl)cccc1C(=O)Nc1ccc(C(F)(F)C(F)(F)F)cc1Cl [compound 1540] | A (100) | A (100) | A (100)
CCN(CC)C(=O)c1c(Cl)cccc1C(=O)Nc1ccc(C(F)(F)C(F)(F)F)cc1F [compound 1541] | A (100) | A (100) | A (100)
CCN(CC)C(=O)c1c(Cl)cccc1C(=O)Nc1ccc(Cl)cc1C [compound 1542] | A (100) | D (79-50) | A (100)
CCc1cc(C(F)(F)C(F)(F)F)ccc1NC(=O)c1cccc(Cl)c1C(=O)N(CC)CC [compound 1543] | A (100) | A (100) | A (100)
CCN(CC)C(=O)c1c(Cl)cccc1C(=O)Nc1ccc(OC(F)(F)F)cc1 [compound 1544] | A (100) | A (100) | A (100)
CCN(CC)C(=O)c1c(Cl)cccc1C(=O)Nc1ccc(C(F)(F)F)cc1 [compound 1545] | A (100) | D (79-50) | A (100)
CCN(CC)C(=O)c1c(F)cccc1C(=O)Nc1ccc(Cl)cc1C [compound 1546] | A (100) | C (89-80) | A (100)
CCc1cc(C(F)(F)C(F)(F)F)ccc1NC(=O)c1cccc(F)c1C(=O)N(CC)CC [compound 1549] | A (100) | D (79-50) | A (100)
CCN(CC)C(=O)c1c(C(=O)Nc2ccc(C(F)(F)C(F)(F)F)cc2C)cccc1[N+](=O)[O-] [compound 1550] | A (100) | A (100) | A (100)
CCN(CC)C(=O)c1cccc([N+](=O)[O-])c1C(=O)Nc1ccc(C(F)(F)C(F)(F)F)cc1C [compound 1551] | A (100) | D (79-50) | A (100)
Cc1cc(NC(=O)c2cccc(I)c2C(=O)NC(C)(C)C)ccc1C(F)(F)C(F)(F)F [compound 1552] | A (100) | A (100) | A (100)
CCN(CC)C(=O)c1c(I)cccc1C(=O)Nc1ccc(OC(F)(F)C(F)F)cc1C [compound 1556] | A (100) | A (100) | A (100)
CCN(CC)C(=O)c1c(I)cccc1C(=O)Nc1ccc(Cl)cc1C [compound 1557] | A (100) | A (100) | A (100)
CCN(CC)C(=O)c1c(I)cccc1C(=O)Nc1ccc(C(F)(F)F)cc1 [compound 1558] | A (100) | C (89-80) | A (100)
CCc1cc(C(F)(F)C(F)(F)F)ccc1NC(=O)c1cccc(I)c1C(=O)N(CC)CC [compound 1559] | A (100) | A (100) | A (100)

SMILES | Insecticidal effect (Test Example 1), judged from mortality [1] | Insecticidal effect (Test Example 2), judged from mortality [2] | Insecticidal effect (Test Example 3), judged from mortality [3]
CCN(CC)C(=O)c1c(I)cccc1C(=O)Nc1ccc(C(F)(F)C(F)(F)F)cc1Cl [compound 1560] | A (100) | A (100) | A (100)
CCN(CC)C(=O)c1c(I)cccc1C(=O)Nc1ccc(C(F)(F)C(F)(F)F)cc1C [compound 1561] | A (100) | A (100) | A (100)
CC(C)(C)NC(=O)c1c(I)cccc1C(=O)Nc1ccc(C(F)(F)C(F)(F)F)cc1Br [compound 1562] | A (100) | A (100) | A (100)
Cc1cc(NC(=O)c2cccc(I)c2C(=O)NC(C)C)ccc1C(F)(F)C(F)(F)F [compound 1563] | A (100) | A (100) | A (100)
CCC(C)(C)NC(=O)c1c(I)cccc1C(=O)Nc1ccc(C(F)(F)C(F)(F)F)cc1C [compound 1565] | A (100) | A (100) | A (100)
CCC(C)(C)NC(=O)c1c(I)cccc1C(=O)Nc1ccc(OC(F)(F)F)cc1C [compound 1566] | A (100) | A (100) | A (100)
CCC(C)(C)NC(=O)c1c(I)cccc1C(=O)Nc1ccc(OC(F)F)cc1C [compound 1568] | A (100) | A (100) | A (100)
C=CC(C)(C)NC(=O)c1c(Cl)cccc1C(=O)Nc1ccc(C(F)(F)C(F)(F)F)cc1C [compound 1569] | A (100) | A (100) | A (100)
Cc1cc(C(F)(F)C(F)(F)F)ccc1NC(=O)c1cccc(Cl)c1C(=O)NC(C)(C)C#Cc1ccc(Cl)cc1Cl [compound 1571] | A (100) | A (100) | A (100)
COc1ccc(C#CC(C)(C)NC(=O)c2c(Cl)cccc2C(=O)Nc2ccc(C(F)(F)C(F)(F)F)cc2C)cc1 [compound 1572] | A (100) | A (100) | A (100)
CCCN(CC)C(=O)c1c(I)cccc1C(=O)Nc1ccc(C(F)(F)C(F)(F)F)cc1C [compound 1573] | A (100) | A (100) | A (100)
CCCN(CC)C(=O)c1c(I)cccc1C(=O)Nc1ccc(OC(F)(F)F)cc1C [compound 1574] | A (100) | A (100) | A (100)
Cc1cc(C(F)(F)C(F)(F)F)ccc1NC(=O)c1cccc(Cl)c1C(=O)NCc1ccc(OC(F)(F)F)cc1 [compound 1576] | A (100) | D (79-50) | A (100)
CC(C)NC(=O)c1c(I)cccc1C(=O)Nc1ccc(C(F)(F)C(F)(F)F)cc1Br [compound 1580] | A (100) | A (100) | A (100)
CCCN(CC)C(=O)c1c(F)cccc1C(=O)Nc1ccc(C(F)(F)C(F)(F)F)cc1C [compound 1581] | A (100) | A (100) | A (100)
